Values joined by “and” are separate entries in the source; they are usually repeats but may differ in a detail not shown here. Equal values may be shown once. Read-outs that look alike come from different tables or passages of the source.
Experiments:
[1] = test system: LNCaP cell line; experiment: Chelate permeability: fluorescence of cytoplasm and membrane fractions; assay type: cell-based, human
[2] = test system: T84 cell line; experiment: as above; assay type: cell-based, human; settings: 1 mM chelate, 2 h, Table 4
[3] = test system: RBL-2H3 cell line; experiment: as above; assay type: cell-based, rat
Experimental: Tb-PCTMB (Tb(III) 3,6,9-tris(methylene phosphonic acid n-butyl ester)-3,6,9,15-tetraazabicyclo[9.3.1]pentadeca-1(15),11,13-triene) was tested for permeability to abnormal and disease-state cells.
RBL-2H3 is a rat basophilic leukemia cell line. These cells were grown in Iscove's Medium supplemented with 2 mM L-glutamnine, penicillin/streptomycin (100 IU/mL, 100 μg/mL) and 10% FBS. Cells were maintained at 5% CO2 and 95% humidity. PZ-HPV-7 cell line was derived from epithelial cells cultured from normal prostate tissue. They were grown in Keratinocyte-Serum Free Medium with human recombinant EGF and bovine pituitary extract supplemented with 50 μg/mL gentamicin and penicillin/streptomycin (100 IU/mL, 100 μg/mL). All media and supplements were purchased from Gibco BRL (Grand Island, N.Y., USA). All cell lines were obtained from ATCC and were maintained at 37° C., 5% CO2 and 95% humidity.
Cells were grown to confluence in T-150 flasks (about 2×10^6 cells). […] Cells were then removed from the flask by manual scraping. Cells were transferred to a 50-mL conical tube and centrifuged (400×g) for 5 minutes and the test material removed.
Cells were grown as described herein (Example 1). Cells were grown to confluence in T-150 flask (about 2×10^6 cells). […] Cells were then removed from the flask by manual scraping. Cells were transferred to a 50-mL conical tube and centrifuged (400×g) for 5 minutes and the test material removed.
Furthermore, one analogue, QCTMP (FIG. 26), having lesser lipophilic character (a free phosphonic acid moiety) was evaluated. […] In this study, the cytoplasm and membrane fractions were extracted by Mem-PER Eukaryotic Membrane Protein Extraction Reagent Kit as described by the manufacturers (Pierce Biotechnology, Rockford, Ill.) and analyzed by a Fluor-S Multilmager.

[4] = test system: C-33A cervical cells; settings: read-out: Chelate Concentration Producing 50% Inhibition of Cancer Cell Growth, MTS, 96 hour continuous exposure
Experimental: (§1) To assess whether or not chelate treatment of cancer cells could produce a net modulation in cell growth, the overall growth inhibitory effect of chelates on various cancer cell lines was tested. The concentration of chelate necessary to produce 50% growth inhibition was measured, as determined by detection of the formazan product of cellular […] of 3-(4,5-dimethylthiazol-2-yl)-5-(3-carboxymethoxyphenyl)-2-(4-sulfophenyl)-2H-tetrazolium, inner salt (MTS).

[5] = test system: CaCo-2 colorectal adenocarcinoma cells; settings: read-out: Chelate Concentration Producing 50% Inhibition of Cancer Cell Growth, MTS, 96 hour continuous exposure
Experimental: as §1

[6] = test system: Caki-1 renal cell carcinoma cells; settings: read-out: Chelate Concentration Producing 50% Inhibition of Cancer Cell Growth, MTS, 96 hour continuous exposure
Experimental: as §1

[7] = test system: DU-145 prostate adenocarcinoma cells
Experimental: as §1

[8] = test system: HLaC head & neck squamous cell carcinoma cells; settings: read-out: Chelate Concentration Producing 50% Inhibition of Cancer Cell Growth, MTS, 96 hour continuous exposure
Experimental: as §1

[9] = test system: HT-29 colon adenocarcinoma cells; settings: read-out: Chelate Concentration Producing 50% Inhibition of Cancer Cell Growth, MTS, 96 hour continuous exposure
Experimental: as §1

[10] = test system: LnCaP prostate adenocarcinoma cells
Experimental: as §1

[11] = test system: MDA-231 breast adenocarcinoma cells
Experimental: as §1

[12] = test system: MDA-231-M breast adenocarcinoma cells, metastatic clone; settings: read-out: Chelate Concentration Producing 50% Inhibition of Cancer Cell Growth, MTS, 96 hour continuous exposure
Experimental: as §1

[13] = test system: NCM460 normal human colon epithelial cells; settings: read-out: Chelate Concentration Producing 50% Inhibition of Cancer Cell Growth; NCM460 control line; MTS; 96 hour continuous exposure
Experimental: as §1

[14] = test system: SK-MES lung non-small cell squamous carcinoma cells; settings: read-out: Chelate Concentration Producing 50% Inhibition of Cancer Cell Growth, MTS, 96 hour continuous exposure
Experimental: as §1

[15] = test system: cancer cells (LNCaP, Caco-2, T84); experiment: Chelate permeability and specificity, cancer cells versus normal cells (summary); assay type: cell-based, human; settings: cancer cells
[16] = test system: C33-A cells; settings: for EuQCTME Cell Binding (fluorescence per well): 1 mM
[17] = test system: DU145 cells; settings: for EuQCTME Cell Binding (fluorescence per well): 1 mM
[18] = test system: HLAC cells; settings: for EuQCTME Cell Binding (fluorescence per well): 1 mM
[19] = test system: excised human colorectal tissue; settings: 2 mM/5% ethanol aerosol spray, rinsing, UV 320 nm
Experimental: Excised tissue was received from human patients undergoing radical resection of the colon as a result of invasive cancer. Sections of tissue were received within 30 minutes of resection and the chelate solution applied as an aerosol spray followed by sequential aqueous rinsing to remove unbound chelate. The resulting tissue was then visualized under UV irradiation (320 nm) to detect the presence of the chelate (red-shifted emission).

[20] = test system: human cancer cell lines
Experimental: To assess whether or not chelate treatment of cancer cells could produce a net modulation in cell growth, the overall growth inhibitory effect of chelates on various cancer cell lines was tested. The concentration of chelate necessary to produce 50% growth inhibition was measured, as determined by detection of the formazan product of cellular degradation of 3-(4,5-dimethylthiazol-2-yl)-5-(3-carboxymethoxyphenyl)-2-(4-sulfophenyl)-2H-tetrazolium, inner salt (MTS).

[21] = test system: cancer cell lines (CaCo-2, Du-145, SK-MES, HLaC, C33-A); settings: relative to control cells
[22] = 0-2000 μM, 2 hours, compared to PZ-HPV-7

CCOP(=O)([O-])CN1CCN(Cc2ccc3cc(C)ccc3n2)CCN(CP(=O)([O-])OCC)CCN(CP(=O)([O-])OCC)CC1.[Eu+3] [Eu-QCTME, Eu(III) N-(6-methyl-2-quinolylmethyl)-N′,N″,N′″-tris(methylenephosphonic acid ethyl ester)-1,4,7,10-tetraazacyclododecane]
fluorescence in the cytoplasm, dose response [1, 22]: significant increases in fluorescence | Fluorescence/mg Cytoplasm ([1]; 1 mM chelate, 2 h, Table 4): 3881 | Fluorescence/mg Membrane ([1]; 1 mM chelate, 2 h, Table 4): 2561 | Fluorescence/mg Cytoplasm [2]: 4548 | Fluorescence/mg Membrane [2]: 2307 | fluorescence in the membrane fractions, dose response ([3]; 0-2000 μM, 2 hours): detectable quantity of fluorescence | fluorescence in the cytoplasm, dose response [3, 22]: significant increases in fluorescence | Fluorescence/mg Cytoplasm ([3]; 1 mM chelate, 2 h, Table 4): 4415 | Fluorescence/mg Membrane ([3]; 1 mM chelate, 2 h, Table 4): 2644 | IC50 [4]: 41 µM | IC50 [5]: 134 µM | IC50 [6]: 16 µM | inhibitory activity, time course MTS ([7]; 500 μM, 24 hours): showed inhibitory activity | IC50 ([7]; read-out: Chelate Concentration Producing 50% Inhibition of Cancer Cell Growth, MTS, 96 hour continuous exposure): 54.4 µM | IC50 [8]: 21.9 µM | IC50 [9]: 15.8 µM | growth inhibition ([10]; LNCAP, 500 μM, 24 hours exposure): over 30% | IC50 ([10]; read-out: Chelate Concentration Producing 50% Inhibition of Cancer Cell Growth, LnCaP, MTS, 96 hour continuous exposure): 46.4 µM | inhibitory activity, time course MTS ([11]; MDA-231, 500 μM, 24 hours): showed inhibitory activity | growth inhibition ([11]; MDA-MB-231, 500 μM, 24 hours exposure): over 30% | IC50 ([11]; read-out: Chelate Concentration Producing 50% Inhibition of Cancer Cell Growth, MDA-231, MTS, 96 hour continuous exposure): 39.6 µM | IC50 [12]: 46.8 µM | IC50 [13]: 123 µM and 124 µM | IC50 [14]: 140 µM | permeability to cell membranes [15]: permeable to cancer cell membranes | EuQCTME Cell Binding (fluorescence per well) ([16]; 2 min): 2,967 | EuQCTME Cell Binding (fluorescence per well) ([16]; 5 min): 22,763 | EuQCTME Cell Binding (fluorescence per well) ([16]; 15 min): 5,075 | EuQCTME Cell Binding (fluorescence per well) ([16]; 30 min): 2,923 | EuQCTME Cell Binding (fluorescence per well) ([16]; 45 min): 7,030 | EuQCTME Cell Binding (fluorescence per well) ([16]; 60 min): 583 | EuQCTME Cell Binding (fluorescence per well) ([16]; 120 min): 1,275 | EuQCTME Cell Binding (fluorescence per well) ([16]; 180 min): 2,377 | EuQCTME Cell Binding (fluorescence per well) ([16]; 240 min): 1,322 | Totals: Normalized total area under each curve (AUC) ([16]; over 240 min): 9 | EuQCTME Cell Binding (fluorescence per well) ([17]; 2 min): 27,884 | EuQCTME Cell Binding (fluorescence per well) ([17]; 5 min): 10,040 | EuQCTME Cell Binding (fluorescence per well) ([17]; 15 min): 747 | EuQCTME Cell Binding (fluorescence per well) ([17]; 30 min): 19,868 | EuQCTME Cell Binding (fluorescence per well) ([17]; 45 min): 10,987 | EuQCTME Cell Binding (fluorescence per well) ([17]; 60 min): 3,235 | EuQCTME Cell Binding (fluorescence per well) ([17]; 120 min): 15,644 | EuQCTME Cell Binding (fluorescence per well) ([17]; 180 min): 9,038 | EuQCTME Cell Binding (fluorescence per well) ([17]; 240 min): 2,506 | Totals: Normalized total area under each curve (AUC) ([17]; over 240 min): 49 | EuQCTME Cell Binding (fluorescence per well) ([18]; 2 min): 15,807 | EuQCTME Cell Binding (fluorescence per well) ([18]; 5 min): 20,493 | EuQCTME Cell Binding (fluorescence per well) ([18]; 15 min): 13,704 | EuQCTME Cell Binding (fluorescence per well) ([18]; 30 min): 6,300 | EuQCTME Cell Binding (fluorescence per well) ([18]; 45 min): 10,068 | EuQCTME Cell Binding (fluorescence per well) ([18]; 60 min): 3,206 | EuQCTME Cell Binding (fluorescence per well) ([18]; 120 min): 21,877 | EuQCTME Cell Binding (fluorescence per well) ([18]; 180 min): 6,510 | EuQCTME Cell Binding (fluorescence per well) ([18]; 240 min): 2,401 | Totals: Normalized total area under each curve (AUC) ([18]; over 240 min): 51 | localization in adjacent normal tissue [19]: no detectable localization | localization in diseased tissue (adenocarcinoma and pre-malignant neoplasm) [19]: found to localize in diseased tissue | cancer cell lines significantly inhibited compared to control [20]: 8 of 10 cancer cell lines were significantly inhibited | IC50 ([20]; read-out: Half-maximum growth inhibition concentration, range over examined cancer cell lines, 96 hour continuous exposure): 16 to 140 µM | time course cytotoxicity ([20]; up to 48 hours, most malignant cell lines): lack of measurable cytotoxicity | time of initial burst of cell-bound fluorescence [21]: ≤ 5 min

From patent US20060210479A1 (Dow Global Technologies Inc., priority 2004, published 2006)
